Active and inactive are the calls of the source. No cut-off for these calls is given here.
Tests used:
CCRF-CEM [1] = experiment: Cell cycle arrest in human CCRF-CEM cells assessed as accumulation at G2/M phase at 1 uM treated for 3 hrs followed by drug washout and 15 hrs incubation in drug free medium by flow cytometry; format: functional
CCRF-CEM [2] = experiment: Cytotoxicity against p38-proficient human CCRF-CEM cells after 3 days by MTT assay; format: functional, cell-based; conditions: 72 h
CCRF-CEM [3] = experiment: Cell cycle arrest in human CCRF-CEM cells assessed as accumulation at S phase at 1 uM treated for 3 hrs measured for 15 hrs after nocodazole treatment by flow cytometry in presence of mitotic inhibitor nocodazole; format: functional
CCRF-CEM [4] = experiment: Cell cycle arrest in human CCRF-CEM cells assessed as accumulation at G2/M phase at 1 uM treated for 3 hrs measured for 15 hrs after nocodazole treatment by flow cytometry in presence of mitotic inhibitor nocodazole; format: functional
CCRF-CEM [5] = experiment: Cell cycle arrest in human CCRF-CEM cells assessed as accumulation at subG1 phase at 1 uM treated for 3 hrs measured for 15 hrs after nocodazole treatment by flow cytometry in presence of mitotic inhibitor nocodazole; format: functional
CCRF-CEM [6] = experiment: Cell cycle arrest in human CCRF-CEM cells assessed as accumulation at G0 phase at 1 uM treated for 3 hrs measured for 15 hrs after nocodazole treatment by flow cytometry in presence of mitotic inhibitor nocodazole; format: functional
CCRF-CEM [7] = experiment: Cell cycle arrest in human CCRF-CEM cells assessed as accumulation at G0 phase at 1 uM treated for 3 hrs followed by drug washout and 15 hrs incubation in drug free medium by flow cytometry; format: functional
CCRF-CEM [8] = experiment: Cell cycle arrest in human CCRF-CEM cells assessed as accumulation at subG1 phase at 1 uM treated for 3 hrs followed by drug washout and 15 hrs incubation in drug free medium by flow cytometry; format: functional
CCRF-CEM [9] = experiment: Cell cycle arrest in human CCRF-CEM cells assessed as accumulation at S phase at 1 uM treated for 3 hrs followed by drug washout and 15 hrs incubation in drug free medium by flow cytometry; format: functional
CCRF-CEM [10] = experiment: Cell cycle arrest in human CCRF-CEM cells assessed as accumulation at G2/M phase at 10 uM treated for 3 hrs followed by drug washout and 15 hrs incubation in drug free medium by flow cytometry; format: functional
CCRF-CEM [11] = experiment: Cell cycle arrest in human CCRF-CEM cells assessed as accumulation at G0 phase at 0.1 uM treated for 3 hrs measured for 15 hrs after nocodazole treatment by flow cytometry in presence of mitotic inhibitor nocodazole; format: functional
CCRF-CEM [12] = experiment: Cell cycle arrest in human CCRF-CEM cells assessed as accumulation at G0 phase at 10 uM treated for 3 hrs measured for 15 hrs after nocodazole treatment by flow cytometry in presence of mitotic inhibitor nocodazole; format: functional
CCRF-CEM [13] = experiment: Cell cycle arrest in human CCRF-CEM cells assessed as accumulation at subG1 phase at 0.1 uM treated for 3 hrs followed by drug washout and 15 hrs incubation in drug free medium by flow cytometry; format: functional
CCRF-CEM [14] = experiment: Cell cycle arrest in human CCRF-CEM cells assessed as accumulation at G2/M phase at 0.1 uM treated for 3 hrs followed by drug washout and 15 hrs incubation in drug free medium by flow cytometry; format: functional
CCRF-CEM [15] = experiment: Cell cycle arrest in human CCRF-CEM cells assessed as accumulation at S phase at 0.1 uM treated for 3 hrs measured for 15 hrs after nocodazole treatment by flow cytometry in presence of mitotic inhibitor nocodazole; format: functional
[16] = biological target: T1, DNA topoisomerase 1 (Homo sapiens) (UniProt P11387); experiment: Induction of human DNA topoisomerase 1-mediated DNA cleavage at 1 to 10 uM by polyacrylamide gel electrophoresis
T1 sequence (whole entry): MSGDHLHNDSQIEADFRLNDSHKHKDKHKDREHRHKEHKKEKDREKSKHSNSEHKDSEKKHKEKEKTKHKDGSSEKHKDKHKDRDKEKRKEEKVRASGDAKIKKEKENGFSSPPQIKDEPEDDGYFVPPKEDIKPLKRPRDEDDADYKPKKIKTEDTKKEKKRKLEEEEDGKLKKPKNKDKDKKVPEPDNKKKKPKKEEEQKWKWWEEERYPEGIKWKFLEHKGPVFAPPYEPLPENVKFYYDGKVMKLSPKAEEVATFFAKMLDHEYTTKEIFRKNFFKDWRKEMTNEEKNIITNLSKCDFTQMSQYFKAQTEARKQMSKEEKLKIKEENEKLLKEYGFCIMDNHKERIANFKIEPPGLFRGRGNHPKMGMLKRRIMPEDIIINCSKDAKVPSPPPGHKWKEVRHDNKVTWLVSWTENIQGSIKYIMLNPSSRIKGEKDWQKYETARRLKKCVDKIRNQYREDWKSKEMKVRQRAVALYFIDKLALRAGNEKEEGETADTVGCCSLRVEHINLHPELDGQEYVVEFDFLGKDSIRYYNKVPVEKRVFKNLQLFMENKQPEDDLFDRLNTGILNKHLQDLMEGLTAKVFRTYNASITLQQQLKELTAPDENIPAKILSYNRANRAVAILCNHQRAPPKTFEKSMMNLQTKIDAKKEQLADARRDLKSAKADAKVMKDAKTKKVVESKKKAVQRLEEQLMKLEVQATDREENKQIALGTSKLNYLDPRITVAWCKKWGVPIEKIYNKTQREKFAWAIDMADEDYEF

[17] = biological target: T1, DNA topoisomerase 1 (Homo sapiens); experiment: Reversal of drug-stabilized human DNA topoisomerase 1-DNA binary complex at 5 uM within 5 mins by polyacrylamide gel electrophoresis in presence of 0.35 M NaCl
CCRF-CEM [18] = experiment: Cell cycle arrest in human CCRF-CEM cells assessed as accumulation at S phase at 10 uM treated for 3 hrs measured for 15 hrs after nocodazole treatment by flow cytometry in presence of mitotic inhibitor nocodazole; format: functional
CCRF-CEM [19] = experiment: Cell cycle arrest in human CCRF-CEM cells assessed as accumulation at G2/M phase at 0.1 uM treated for 3 hrs measured for 15 hrs after nocodazole treatment by flow cytometry in presence of mitotic inhibitor nocodazole; format: functional
CCRF-CEM [20] = experiment: Cell cycle arrest in human CCRF-CEM cells assessed as accumulation at G2/M phase at 10 uM treated for 3 hrs measured for 15 hrs after nocodazole treatment by flow cytometry in presence of mitotic inhibitor nocodazole; format: functional
CCRF-CEM [21] = experiment: Cell cycle arrest in human CCRF-CEM cells assessed as accumulation at subG1 phase at 0.1 uM treated for 3 hrs measured for 15 hrs after nocodazole treatment by flow cytometry in presence of mitotic inhibitor nocodazole; format: functional
CCRF-CEM [22] = experiment: Cell cycle arrest in human CCRF-CEM cells assessed as accumulation at subG1 phase at 10 uM treated for 3 hrs measured for 15 hrs after nocodazole treatment by flow cytometry in presence of mitotic inhibitor nocodazole; format: functional
CCRF-CEM [23] = experiment: Cell cycle arrest in human CCRF-CEM cells assessed as accumulation at G0 phase at 0.1 uM treated for 3 hrs followed by drug washout and 15 hrs incubation in drug free medium by flow cytometry; format: functional
CCRF-CEM [24] = experiment: Cell cycle arrest in human CCRF-CEM cells assessed as accumulation at G0 phase at 10 uM treated for 3 hrs followed by drug washout and 15 hrs incubation in drug free medium by flow cytometry; format: functional
CCRF-CEM [25] = experiment: Cell cycle arrest in human CCRF-CEM cells assessed as accumulation at subG1 phase at 10 uM treated for 3 hrs followed by drug washout and 15 hrs incubation in drug free medium by flow cytometry; format: functional
CCRF-CEM [26] = experiment: Cell cycle arrest in human CCRF-CEM cells assessed as accumulation at S phase at 0.1 uM treated for 3 hrs followed by drug washout and 15 hrs incubation in drug free medium by flow cytometry; format: functional
CCRF-CEM [27] = experiment: Cell cycle arrest in human CCRF-CEM cells assessed as accumulation at S phase at 10 uM treated for 3 hrs followed by drug washout and 15 hrs incubation in drug free medium by flow cytometry; format: functional

| SMILES | Activity (CCRF-CEM [1]) | IC50 (CCRF-CEM [2]) | Activity (CCRF-CEM [3]) | Activity (CCRF-CEM [4]) | Activity (CCRF-CEM [5]) | Activity (CCRF-CEM [6]) | Activity (CCRF-CEM [7]) | Activity (CCRF-CEM [8]) | Activity (CCRF-CEM [9]) | Activity (CCRF-CEM [10]) | Activity (CCRF-CEM [11]) | Activity (CCRF-CEM [12]) | Activity (CCRF-CEM [13]) | Activity (CCRF-CEM [14]) | Activity (CCRF-CEM [15]) | Activity [16] | Activity [17] | Activity (CCRF-CEM [18]) | Activity (CCRF-CEM [19]) | Activity (CCRF-CEM [20]) | other results |
| --- | --- | --- | --- | --- | --- | --- | --- | --- | --- | --- | --- | --- | --- | --- | --- | --- | --- | --- | --- | --- | --- |
| CC[C@@]1(O)C(=O)OCc2c1cc1n(c2=O)Cc2cc3ccccc3nc2-1 [CAMPTOTHECIN] | 28.4% | 40 nM | 10.3% | 21.7% | 17.5% | 23.6% | 34.6% | 18% | 15.5% |  |  |  |  |  |  |  |  |  |  |  |  |
| O=C1c2c[n+]([O-])c3ccccc3c2C(=O)c2[nH]c3ccccc3c21 [CALOTHRIXIN A] | 19% | 200 nM | 8.7% | 29.5% | 4.2% | 13.3% | 47.3% | 16% | 15.3% | 23.6% | 8.3% | 13% | 10.3% | 19.4% | 4% | 18% | Active | 7.5% | 16.8% | 37% | Activity (CCRF-CEM [21]): 7.7%; Activity (CCRF-CEM [22]): 2.1%; Activity (CCRF-CEM [23]): 51.4%; Activity (CCRF-CEM [24]): 50.1%; Activity (CCRF-CEM [25]): 9.1%; Activity (CCRF-CEM [26]): 17.3%; Activity (CCRF-CEM [27]): 15.3% |
| CO[n+]1cc2c(c3ccccc31)C(=O)c1[nH]c3ccccc3c1C2=O |  |  |  |  |  |  |  |  |  |  |  |  |  |  |  | 11% | Active |  |  |  |  |
| C[n+]1cc2c(c3ccccc31)C(=O)c1[nH]c3ccccc3c1C2=O.[I-] [N-METHYLCALOTHRIXIN B] | 19.6% | 5130 nM | 4.9% | 20.1% | 5.4% | 6.9% | 51% | 10.6% | 17% | 19% | 5.1% | 11.6% | 9.8% | 20.2% | 3.2% | 11% | Active | 11.3% | 18.8% | 21.7% | Activity (CCRF-CEM [21]): 3.7%; Activity (CCRF-CEM [22]): 6.9%; Activity (CCRF-CEM [23]): 50.3%; Activity (CCRF-CEM [24]): 51.7%; Activity (CCRF-CEM [25]): 11.8%; Activity (CCRF-CEM [26]): 17.8%; Activity (CCRF-CEM [27]): 15.1% |
| O=C1c2[nH]c3ccccc3c2C(=O)c2cnc3ccccc3c21 [CALOTHRIXIN B] | 16.5% | 1050 nM | 4.8% | 18.8% | 4.6% | 7.4% | 55.6% | 7.9% | 18.2% | 18.6% | 25.3% | 7.7% | 7.5% | 17.3% | 4.5% | 24% | Active | 4.6% | 61.5% | 18.2% | Activity (CCRF-CEM [21]): 6.2%; Activity (CCRF-CEM [22]): 6.4%; Activity (CCRF-CEM [23]): 55.6%; Activity (CCRF-CEM [24]): 51.4%; Activity (CCRF-CEM [25]): 11.2%; Activity (CCRF-CEM [26]): 17.6%; Activity (CCRF-CEM [27]): 17% |
